Data from patent publication US12702689B2, “Anti-inflammatory compositions, and uses thereof” (P.L. THOMAS & CO., INC., priority 2022, dated 2026).

Test system: IL-5, IL-4, IL-13, IL-10 in BAL fluid
Assay: BAL fluid cytokine markers, multiplex flow-cytometry based assay
Assay type: in vivo, BALB/cJ female mice
Settings: OVA+AKBA mice, 100 mg/kg AKBA
From the text: Allergic airway phenotype was induced by using an ovalbumin (OVA, hen egg) sensitization and challenge model as previously described with modifications [Beigelman, A. et al. Azithromycin attenuates airway inflammation in a noninfectious mouse model of allergic asthma. Chest 136, 498-506 (2009)]. Briefly (FIG. 1), two groups of mice (OVA control and OVA+AKBA) were sensitized with intraperitoneal ovalbumin plus alum on days 0 and 7, challenged for 3 days (day 14 to day 17) via nebulized OVA at 1% in PBS for 30 mins, and harvested 48 hr after final challenge. Supplementation groups (OVA+AKBA) were given 100 mg/kg of water soluble AKBA (pH 7) (PLT Health Solutions, Morristown, NJ, US) in autoclaved mouse water, via gavage, every other day for 10 days and then every day for the remainder of the experiment (9 days). OVA control and naïve mouse continued to receive normal autoclaved mouse water. Mice were weighted at the beginning and end of the experiment. Experiments involving AKBA were conducted twice, with the first group containing 5 mice per group and the second containing 15 mice per group (5 per group for naive). Experiment procedures were identical, and results were pooled for n=20 (n=5 for naive). Animal protocol 102063-0522 was approved by the University of Connecticut Health IACUC board. Experiments were repeated, as stated above, with oral gavages of B. pseudolongum culture in place of AKBA supplementation. Groups were designated as OVA control (n=10), OVA+B. pseudolongum (n=10) and naïve (n=5). OVA+B. pseudolongum groups were given 10^8 CFU B. pseudolongum in culture medium via gavage, every other day for 10 days and then every day for the remainder of the experiment (9 days). Multiple inflammatory mediators were analyzed in the cell-free supernatant of BAL fluid using a multiplex flow-cytometry based assay according to manufacturer's recommendations (BioLegend, San Diego, CA, US). Volume of cell free fluid was concentrated using a 50K centrifugal filter spun at 3000 g for 10-15 minutes. Samples were run on a ZE5 Cell Analyzer (Bio-Rad, Hercules, CA, US) and sample processing was conducting using software provided from the kit's manufacturer (BioLegend, San Diego, CA, US). Serum specific ovalbumin IgE levels was detected by using an ELISA kit with a sensitivity of 3.8 ng/mL per manufacturer's protocol (Cayman Chemical Company, Ann Arbor, MI, US).

## CC(=O)O[C@@H]1CC[C@@]2(C)[C@@H](CC[C@]3(C)[C@@H]2C(=O)C=C2[C@@H]4[C@@H](C)[C@H](C)CC[C@]4(C)CC[C@]23C)[C@@]1(C)C(=O)O [AKBA, 3-O-acetyl-11-keto-b-boswellic acid]
Not significant vs OVA control
  IL-10 in BAL fluid: 19.77 ± 12.19 ng/mL
  IL-13 in BAL fluid: 4.15 ± 3.15 ng/mL
p=0.0079 vs OVA control
  IL-5 in BAL fluid: 31.39 ± 17.71 ng/mL
p=0.0229 vs OVA control
  IL-4 in BAL fluid: 9.30 ± 6.67 ng/mL
